Experimental data: PubChem BioAssay (NCI)
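The compound was tested at five concentrations on cells cultured in 96-well plates, with a 48-hour exposure period. TGI: total growth inhibition.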

Columns and labels:
Assay in all cases: NCI-60 cell line screen, 48 h
786-0 renal = test system: 786-0 renal
A498 renal = test system: A498 renal
A549 NSCLC = test system: A549 NSCLC
ACHN renal = test system: ACHN renal
BT-549 breast = test system: BT-549 breast
CAKI-1 renal = test system: CAKI-1 renal
CCRF-CEM leukemia = test system: CCRF-CEM leukemia
COLO 205 colon = test system: COLO 205 colon
DU-145 prostate = test system: DU-145 prostate
EKVX NSCLC = test system: EKVX NSCLC
HCC-2998 colon = test system: HCC-2998 colon
HCT-116 colon = test system: HCT-116 colon
HCT-15 colon = test system: HCT-15 colon
HOP-62 NSCLC = test system: HOP-62 NSCLC
HS 578T breast = test system: HS 578T breast
IGROV1 ovarian = test system: IGROV1 ovarian
K-562 leukemia = test system: K-562 leukemia
KM12 colon = test system: KM12 colon
LOX IMVI melanoma = test system: LOX IMVI melanoma
M14 melanoma = test system: M14 melanoma
MALME-3M melanoma = test system: MALME-3M melanoma
MCF7 breast = test system: MCF7 breast
MDA-MB-231 breast = test system: MDA-MB-231 breast
MDA-MB-435 = test system: MDA-MB-435
MDA-N = test system: MDA-N
MOLT-4 leukemia = test system: MOLT-4 leukemia
NCI-H226 lung = test system: NCI-H226 lung
NCI-H23 lung = test system: NCI-H23 lung
NCI-H460 lung = test system: NCI-H460 lung
NCI-H522 lung = test system: NCI-H522 lung
NCI/ADR-RES ovarian = test system: NCI/ADR-RES ovarian
OVCAR-3 ovarian = test system: OVCAR-3 ovarian
OVCAR-4 ovarian = test system: OVCAR-4 ovarian
OVCAR-5 ovarian = test system: OVCAR-5 ovarian
OVCAR-8 ovarian = test system: OVCAR-8 ovarian
PC-3 prostate = test system: PC-3 prostate
RPMI-8226 leukemia = test system: RPMI-8226 leukemia
RXF 393 renal = test system: RXF 393 renal
SF-268 CNS = test system: SF-268 CNS
SF-295 CNS = test system: SF-295 CNS
SF-539 CNS = test system: SF-539 CNS
SK-MEL-2 melanoma = test system: SK-MEL-2 melanoma
SK-MEL-28 melanoma = test system: SK-MEL-28 melanoma
SK-MEL-5 melanoma = test system: SK-MEL-5 melanoma
SK-OV-3 ovarian = test system: SK-OV-3 ovarian
SN12C renal = test system: SN12C renal
SNB-19 CNS = test system: SNB-19 CNS
SNB-75 CNS = test system: SNB-75 CNS
SR leukemia = test system: SR leukemia
T-47D breast = test system: T-47D breast
TK-10 renal = test system: TK-10 renal
U251 CNS = test system: U251 CNS
UACC-257 melanoma = test system: UACC-257 melanoma
UACC-62 melanoma = test system: UACC-62 melanoma
UO-31 renal = test system: UO-31 renal
HL-60(TB) leukemia = test system: HL-60(TB) leukemia
HOP-92 NSCLC = test system: HOP-92 NSCLC
HT29 colon = test system: HT29 colon
SW-620 colon = test system: SW-620 colon

## Cc1nc(Cl)c(CBr)c(Cl)n1
786-0 renal
  TGI: 1 µM
A498 renal
  TGI: 24.7 µM
A549 NSCLC
  TGI: 12.4 µM
ACHN renal
  TGI: 3.15 µM
BT-549 breast
  TGI: 0.747 µM
CAKI-1 renal
  TGI: 4.01 µM
CCRF-CEM leukemia
  TGI: 0.772 µM
COLO 205 colon
  TGI: 3.15 µM
DU-145 prostate
  TGI: 8.33 µM
EKVX NSCLC
  TGI: 11.8 µM
HCC-2998 colon
  TGI: 11.5 µM
HCT-116 colon
  TGI: 1.19 µM
HCT-15 colon
  TGI: 4.37 µM
HOP-62 NSCLC
  TGI: 4.03 µM
HS 578T breast
  TGI: 5.94 µM
IGROV1 ovarian
  TGI: 3.39 µM
K-562 leukemia
  TGI: 0.887 µM
KM12 colon
  TGI: 2.72 µM
LOX IMVI melanoma
  TGI: 1.77 µM
M14 melanoma
  TGI: 0.949 µM
MALME-3M melanoma
  TGI: 2.92 µM
MCF7 breast
  TGI: 2.17 µM
MDA-MB-231 breast
  TGI: 3.67 µM
MDA-MB-435
  TGI: 3.3 µM
MDA-N
  TGI: 2.97 µM
MOLT-4 leukemia
  TGI: 1.09 µM
NCI-H226 lung
  TGI: 6.73 µM
NCI-H23 lung
  TGI: 3.69 µM
NCI-H460 lung
  TGI: 8.38 µM
NCI-H522 lung
  TGI: 1.15 µM
NCI/ADR-RES ovarian
  TGI: 7.8 µM
OVCAR-3 ovarian
  TGI: 1.97 µM
OVCAR-4 ovarian
  TGI: 3.56 µM
OVCAR-5 ovarian
  TGI: 3.84 µM
OVCAR-8 ovarian
  TGI: 6.47 µM
PC-3 prostate
  TGI: 3.13 µM
RPMI-8226 leukemia
  TGI: 4.47 µM
RXF 393 renal
  TGI: 5.03 µM
SF-268 CNS
  TGI: 8.85 µM
SF-295 CNS
  TGI: 22.9 µM
SF-539 CNS
  TGI: 3.72 µM
SK-MEL-2 melanoma
  TGI: 4.68 µM
SK-MEL-28 melanoma
  TGI: 3.07 µM
SK-MEL-5 melanoma
  TGI: 2.88 µM
SK-OV-3 ovarian
  TGI: 12.7 µM
SN12C renal
  TGI: 3.75 µM
SNB-19 CNS
  TGI: 11.2 µM
SNB-75 CNS
  TGI: 2.26 µM
SR leukemia
  TGI: 0.554 µM
T-47D breast
  TGI: 4.5 µM
TK-10 renal
  TGI: 3.68 µM
U251 CNS
  TGI: 4.1 µM
UACC-257 melanoma
  TGI: 3.37 µM
UACC-62 melanoma
  TGI: 3.46 µM
UO-31 renal
  TGI: 3.2 µM

## Nc1ncnc2c1ncn2C(=O)NC12CC3CC(CC(C3)C1)C2
786-0 renal
  TGI: > 100 µM
A498 renal
  TGI: > 100 µM
A549 NSCLC
  TGI: > 100 µM
ACHN renal
  TGI: > 100 µM
BT-549 breast
  TGI: > 100 µM
CAKI-1 renal
  TGI: > 100 µM
CCRF-CEM leukemia
  TGI: > 100 µM
COLO 205 colon
  TGI: > 100 µM
DU-145 prostate
  TGI: > 100 µM
EKVX NSCLC
  TGI: > 100 µM
HCC-2998 colon
  TGI: > 100 µM
HCT-116 colon
  TGI: > 100 µM
HCT-15 colon
  TGI: > 100 µM
HL-60(TB) leukemia
  TGI: > 100 µM
HOP-62 NSCLC
  TGI: > 100 µM
HOP-92 NSCLC
  TGI: > 100 µM
HS 578T breast
  TGI: > 100 µM
HT29 colon
  TGI: > 100 µM
K-562 leukemia
  TGI: > 100 µM
KM12 colon
  TGI: > 100 µM
LOX IMVI melanoma
  TGI: > 100 µM
M14 melanoma
  TGI: > 100 µM
MALME-3M melanoma
  TGI: > 100 µM
MCF7 breast
  TGI: > 100 µM
MDA-MB-231 breast
  TGI: > 100 µM
MDA-MB-435
  TGI: > 100 µM
MDA-N
  TGI: > 100 µM
MOLT-4 leukemia
  TGI: > 100 µM
NCI-H226 lung
  TGI: > 100 µM
NCI-H23 lung
  TGI: > 100 µM
NCI-H460 lung
  TGI: > 100 µM
NCI/ADR-RES ovarian
  TGI: > 100 µM
OVCAR-3 ovarian
  TGI: > 100 µM
OVCAR-4 ovarian
  TGI: > 100 µM
OVCAR-5 ovarian
  TGI: > 100 µM
OVCAR-8 ovarian
  TGI: > 100 µM
PC-3 prostate
  TGI: > 100 µM
RPMI-8226 leukemia
  TGI: > 100 µM
RXF 393 renal
  TGI: > 100 µM
SF-268 CNS
  TGI: > 100 µM
SF-295 CNS
  TGI: > 100 µM
SF-539 CNS
  TGI: > 100 µM
SK-MEL-2 melanoma
  TGI: > 100 µM
SK-MEL-28 melanoma
  TGI: > 100 µM
SK-MEL-5 melanoma
  TGI: > 100 µM
SK-OV-3 ovarian
  TGI: > 100 µM
SN12C renal
  TGI: > 100 µM
SNB-19 CNS
  TGI: > 100 µM
SNB-75 CNS
  TGI: > 100 µM
SW-620 colon
  TGI: > 100 µM
T-47D breast
  TGI: > 100 µM
TK-10 renal
  TGI: > 100 µM
U251 CNS
  TGI: > 100 µM
UACC-257 melanoma
  TGI: > 100 µM
UACC-62 melanoma
  TGI: > 100 µM
UO-31 renal
  TGI: > 100 µM
